Target: T1, Sp-Fld (Sp-flavodoxin) (Streptococcus pneumoniae, UniProt Q8DPG4)
T1 sequence (Q8DPG4 1-147): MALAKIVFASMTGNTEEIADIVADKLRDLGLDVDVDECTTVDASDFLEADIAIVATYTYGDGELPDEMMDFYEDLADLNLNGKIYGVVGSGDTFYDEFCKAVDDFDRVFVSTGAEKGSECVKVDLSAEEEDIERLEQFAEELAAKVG
Assay: isothermal titration calorimetry
Assay type: binding

Structure (SMILES): N[C@@H](Cc1cc(I)c(Oc2cc(I)c(O)c(I)c2)c(I)c1)C(=O)O [Cp1, L-thyroxine]
- Kd: 2500 ± 400 nM
